# ChEMBL document CHEMBL5465560, “Selectivity Literature for EUbOPEN Chemogenomic Library” (2024)
# What was measured:
# [1] = target: Casein kinase I isoform gamma-2 (Homo sapiens) (UniProt P78368); conditions: at 10 µM
# [2] = target: Mitogen-activated protein kinase kinase kinase 9 (Homo sapiens) (UniProt P80192); experiment: Selectivity interaction (KinomeScan (DiscoverX)) EUB0000092b MAP3K9; conditions: at 10 µM
# [3] = target: T1, Testis-specific serine/threonine-protein kinase 1 (Homo sapiens) (UniProt Q9BXA7); experiment: Selectivity interaction (Upstate Kinase Profiler service (Millipore)) EUB0000056c TSSK1A; conditions: at 1 µM
# T1 sequence (whole entry): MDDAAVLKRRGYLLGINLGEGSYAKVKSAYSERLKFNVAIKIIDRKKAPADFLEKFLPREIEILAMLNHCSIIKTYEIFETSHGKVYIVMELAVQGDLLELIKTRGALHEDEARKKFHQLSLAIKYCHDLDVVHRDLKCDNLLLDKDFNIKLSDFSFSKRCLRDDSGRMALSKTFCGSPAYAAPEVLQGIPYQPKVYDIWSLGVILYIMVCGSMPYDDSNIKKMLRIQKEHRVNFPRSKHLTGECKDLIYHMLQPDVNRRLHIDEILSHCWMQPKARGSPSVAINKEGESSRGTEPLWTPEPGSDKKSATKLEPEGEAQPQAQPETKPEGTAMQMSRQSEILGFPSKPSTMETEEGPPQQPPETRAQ
# [4] = target: MAP kinase-interacting serine/threonine-protein kinase 2 (Homo sapiens, UniProt Q9HBH9); experiment: Selectivity interaction (KinomeScan (DiscoverX)) EUB0000655a MKNK2; conditions: at 10 µM
# [5] = target: Activin receptor type-1-like (Homo sapiens) (UniProt P37023); experiment: Selectivity interaction (ProQinase) EUB0000171b ACVRL1
# [6] = target: T2, Phosphatidylinositol 5-phosphate 4-kinase type-2 beta (Homo sapiens) (UniProt P78356); experiment: Selectivity interaction (KinomeScan (DiscoverX)) EUB0001079a PIP4K2B; conditions: at 1 µM
# T2 sequence (whole entry): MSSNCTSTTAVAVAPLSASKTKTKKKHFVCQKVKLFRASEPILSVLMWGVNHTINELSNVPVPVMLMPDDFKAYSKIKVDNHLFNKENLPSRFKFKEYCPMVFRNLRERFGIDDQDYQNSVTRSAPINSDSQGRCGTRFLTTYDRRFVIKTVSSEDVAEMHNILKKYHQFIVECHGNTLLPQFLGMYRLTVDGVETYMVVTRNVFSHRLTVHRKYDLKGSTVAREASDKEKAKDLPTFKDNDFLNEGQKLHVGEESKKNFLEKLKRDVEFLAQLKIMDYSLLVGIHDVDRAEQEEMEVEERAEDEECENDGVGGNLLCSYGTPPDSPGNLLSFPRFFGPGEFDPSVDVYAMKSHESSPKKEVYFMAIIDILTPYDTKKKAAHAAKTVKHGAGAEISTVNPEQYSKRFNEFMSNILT
# [7] = target: T3, Serine/threonine-protein kinase ULK3 (Homo sapiens) (UniProt Q6PHR2); experiment: Selectivity interaction (KinomeScan (DiscoverX)) EUB0000666a ULK3; conditions: at 10 µM
# T3 sequence (whole entry): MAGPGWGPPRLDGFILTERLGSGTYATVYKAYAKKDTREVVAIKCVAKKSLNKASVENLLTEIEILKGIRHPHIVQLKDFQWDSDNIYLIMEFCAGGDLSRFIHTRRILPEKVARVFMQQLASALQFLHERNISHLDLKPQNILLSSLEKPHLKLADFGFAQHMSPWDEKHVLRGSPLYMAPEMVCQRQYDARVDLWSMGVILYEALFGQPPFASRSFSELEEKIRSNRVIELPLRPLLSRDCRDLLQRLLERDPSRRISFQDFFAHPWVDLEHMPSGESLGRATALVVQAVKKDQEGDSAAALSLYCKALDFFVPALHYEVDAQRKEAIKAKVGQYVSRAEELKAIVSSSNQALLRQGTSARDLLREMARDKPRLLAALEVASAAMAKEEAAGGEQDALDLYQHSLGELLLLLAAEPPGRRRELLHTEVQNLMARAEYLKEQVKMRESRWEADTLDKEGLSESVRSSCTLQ
# [8] = target: Mitogen-activated protein kinase kinase kinase kinase 5 (Homo sapiens) (UniProt Q9Y4K4); conditions: at 10 µM
# [9] = target: Rho-associated protein kinase 2 (Homo sapiens, UniProt O75116); experiment: Selectivity interaction (Kinase panel (Z-LYTE Assay)) EUB0001632a ROCK2; conditions: at 10 µM
# [10] = target: Cyclin-dependent kinase 5 (Homo sapiens, UniProt Q00535); experiment: Selectivity interaction (ActivX KiNativ screen (kinase selectivity in THP-1 cell lysates)) EUB0000639a CDK5; format: subcellular; conditions: lysate, at 5 µM
# [11] = target: Protein kinase C theta type (Homo sapiens, UniProt Q04759); experiment: Selectivity interaction (KinomeScan (DiscoverX)) EUB0000607a PRKCQ; conditions: at 10 µM
# [12] = target: Serine/threonine-protein kinase Nek7 (Homo sapiens) (UniProt Q8TDX7); experiment: Selectivity interaction (KinomeScan (DiscoverX)) EUB0000045b NEK7
# [13] = system: Epidermal growth factor receptor (Homo sapiens), P00533 [UNDEFINED MUTATION]; experiment: Selectivity interaction (KinomeScan (DiscoverX)) EUB0000045b EGFR; conditions: at 10 µM
# [14] = target: Serine/threonine-protein kinase SBK1 (Homo sapiens) (UniProt Q52WX2); experiment: Selectivity interaction (KinomeScan (DiscoverX)) EUB0000618a SBK1; conditions: at 10 µM
# [15] = target: Wee1-like protein kinase 2 (Homo sapiens) (UniProt P0C1S8); experiment: Selectivity interaction (Ambit KINOMEscan and KiNATiv profiling in Jurkat cells) EUB0000090b WEE2; format: cell-based; conditions: at 1 µM
# Chain of Wee1-like protein kinase 2 (Homo sapiens) (P0C1S8 whole entry, looked up): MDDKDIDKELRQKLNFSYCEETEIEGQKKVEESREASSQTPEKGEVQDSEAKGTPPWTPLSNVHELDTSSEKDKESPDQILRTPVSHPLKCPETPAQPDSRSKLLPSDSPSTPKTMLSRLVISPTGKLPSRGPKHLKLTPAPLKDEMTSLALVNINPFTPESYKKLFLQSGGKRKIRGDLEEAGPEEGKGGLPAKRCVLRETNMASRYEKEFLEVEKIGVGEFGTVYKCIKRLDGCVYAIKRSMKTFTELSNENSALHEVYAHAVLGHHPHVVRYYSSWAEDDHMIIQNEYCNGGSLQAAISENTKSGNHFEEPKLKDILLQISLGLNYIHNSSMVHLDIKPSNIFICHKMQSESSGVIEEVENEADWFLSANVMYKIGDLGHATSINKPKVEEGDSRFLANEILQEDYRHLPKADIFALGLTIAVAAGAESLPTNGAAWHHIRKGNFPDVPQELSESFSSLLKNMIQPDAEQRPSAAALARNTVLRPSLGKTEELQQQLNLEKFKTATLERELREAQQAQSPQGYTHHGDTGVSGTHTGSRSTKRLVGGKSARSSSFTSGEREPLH
# Chain of Activin receptor type-1-like (Homo sapiens) (P37023 whole entry): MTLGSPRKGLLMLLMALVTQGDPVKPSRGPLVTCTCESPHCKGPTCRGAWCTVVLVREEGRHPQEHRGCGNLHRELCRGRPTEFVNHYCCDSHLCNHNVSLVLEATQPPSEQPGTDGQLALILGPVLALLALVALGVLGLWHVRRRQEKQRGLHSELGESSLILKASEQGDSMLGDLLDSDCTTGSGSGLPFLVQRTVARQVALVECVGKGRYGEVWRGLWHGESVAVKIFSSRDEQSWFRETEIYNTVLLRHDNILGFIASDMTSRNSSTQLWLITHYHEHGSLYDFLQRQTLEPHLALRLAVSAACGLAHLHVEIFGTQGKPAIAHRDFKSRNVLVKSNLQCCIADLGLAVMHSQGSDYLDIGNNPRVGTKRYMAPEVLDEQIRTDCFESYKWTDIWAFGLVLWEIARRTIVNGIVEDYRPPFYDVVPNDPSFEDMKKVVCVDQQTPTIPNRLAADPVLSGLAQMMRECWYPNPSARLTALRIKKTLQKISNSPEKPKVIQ
# Chain of Serine/threonine-protein kinase Nek7 (Homo sapiens) (Q8TDX7 whole entry, looked up): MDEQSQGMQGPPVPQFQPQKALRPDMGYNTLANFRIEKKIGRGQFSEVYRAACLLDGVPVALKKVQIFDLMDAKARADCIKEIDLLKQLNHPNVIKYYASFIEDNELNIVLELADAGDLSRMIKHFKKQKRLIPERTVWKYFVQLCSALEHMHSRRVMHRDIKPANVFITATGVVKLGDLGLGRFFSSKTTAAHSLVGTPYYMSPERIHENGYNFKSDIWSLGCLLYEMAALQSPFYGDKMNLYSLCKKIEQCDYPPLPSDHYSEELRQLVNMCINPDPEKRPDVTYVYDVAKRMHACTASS
# Chain of Mitogen-activated protein kinase kinase kinase kinase 5 (Homo sapiens) (Q9Y4K4 whole entry, looked up): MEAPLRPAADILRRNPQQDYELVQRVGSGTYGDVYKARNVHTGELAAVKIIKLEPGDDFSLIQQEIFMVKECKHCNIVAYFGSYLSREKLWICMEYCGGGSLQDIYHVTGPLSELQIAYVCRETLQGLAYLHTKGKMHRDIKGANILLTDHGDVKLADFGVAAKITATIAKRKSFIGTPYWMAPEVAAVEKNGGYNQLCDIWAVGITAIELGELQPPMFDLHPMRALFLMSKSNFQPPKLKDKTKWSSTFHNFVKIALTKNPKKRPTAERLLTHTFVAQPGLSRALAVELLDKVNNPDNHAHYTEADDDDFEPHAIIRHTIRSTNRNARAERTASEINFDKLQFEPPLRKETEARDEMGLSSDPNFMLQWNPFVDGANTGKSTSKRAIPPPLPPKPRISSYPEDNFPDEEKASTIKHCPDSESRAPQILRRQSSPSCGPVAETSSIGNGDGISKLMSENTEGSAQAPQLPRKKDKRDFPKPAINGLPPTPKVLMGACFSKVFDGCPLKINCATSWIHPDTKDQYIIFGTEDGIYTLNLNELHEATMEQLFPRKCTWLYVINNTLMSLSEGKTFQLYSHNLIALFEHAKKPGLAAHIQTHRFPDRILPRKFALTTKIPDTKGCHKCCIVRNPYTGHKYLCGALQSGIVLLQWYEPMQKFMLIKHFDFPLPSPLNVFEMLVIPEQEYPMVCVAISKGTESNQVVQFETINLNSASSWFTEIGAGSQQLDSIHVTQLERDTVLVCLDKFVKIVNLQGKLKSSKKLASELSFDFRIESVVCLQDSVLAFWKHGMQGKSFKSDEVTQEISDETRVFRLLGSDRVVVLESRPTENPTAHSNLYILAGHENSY
# Chain of Cyclin-dependent kinase 5 (Q00535 whole entry, looked up): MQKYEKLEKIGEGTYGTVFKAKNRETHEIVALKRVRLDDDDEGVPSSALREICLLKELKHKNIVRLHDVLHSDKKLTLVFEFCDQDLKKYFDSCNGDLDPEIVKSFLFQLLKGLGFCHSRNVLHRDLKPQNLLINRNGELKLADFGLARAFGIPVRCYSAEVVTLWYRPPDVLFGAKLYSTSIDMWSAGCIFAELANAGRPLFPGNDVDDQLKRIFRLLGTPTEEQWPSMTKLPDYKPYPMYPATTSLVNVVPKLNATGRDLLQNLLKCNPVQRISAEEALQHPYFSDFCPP
# Chain of MAP kinase-interacting serine/threonine-protein kinase 2 (Q9HBH9 whole entry, looked up): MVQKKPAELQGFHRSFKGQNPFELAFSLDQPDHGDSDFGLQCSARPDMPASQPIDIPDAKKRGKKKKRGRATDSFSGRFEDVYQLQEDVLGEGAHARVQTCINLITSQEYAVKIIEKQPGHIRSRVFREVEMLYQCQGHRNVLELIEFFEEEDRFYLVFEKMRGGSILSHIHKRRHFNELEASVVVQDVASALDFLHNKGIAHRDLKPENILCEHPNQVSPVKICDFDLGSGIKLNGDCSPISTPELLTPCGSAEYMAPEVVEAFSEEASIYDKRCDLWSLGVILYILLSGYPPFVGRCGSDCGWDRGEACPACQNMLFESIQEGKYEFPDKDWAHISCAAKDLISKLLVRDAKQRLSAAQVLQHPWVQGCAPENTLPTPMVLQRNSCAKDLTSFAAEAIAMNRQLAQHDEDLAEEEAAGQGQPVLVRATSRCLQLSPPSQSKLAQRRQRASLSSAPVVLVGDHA
# Chain of Rho-associated protein kinase 2 (O75116 whole entry, looked up): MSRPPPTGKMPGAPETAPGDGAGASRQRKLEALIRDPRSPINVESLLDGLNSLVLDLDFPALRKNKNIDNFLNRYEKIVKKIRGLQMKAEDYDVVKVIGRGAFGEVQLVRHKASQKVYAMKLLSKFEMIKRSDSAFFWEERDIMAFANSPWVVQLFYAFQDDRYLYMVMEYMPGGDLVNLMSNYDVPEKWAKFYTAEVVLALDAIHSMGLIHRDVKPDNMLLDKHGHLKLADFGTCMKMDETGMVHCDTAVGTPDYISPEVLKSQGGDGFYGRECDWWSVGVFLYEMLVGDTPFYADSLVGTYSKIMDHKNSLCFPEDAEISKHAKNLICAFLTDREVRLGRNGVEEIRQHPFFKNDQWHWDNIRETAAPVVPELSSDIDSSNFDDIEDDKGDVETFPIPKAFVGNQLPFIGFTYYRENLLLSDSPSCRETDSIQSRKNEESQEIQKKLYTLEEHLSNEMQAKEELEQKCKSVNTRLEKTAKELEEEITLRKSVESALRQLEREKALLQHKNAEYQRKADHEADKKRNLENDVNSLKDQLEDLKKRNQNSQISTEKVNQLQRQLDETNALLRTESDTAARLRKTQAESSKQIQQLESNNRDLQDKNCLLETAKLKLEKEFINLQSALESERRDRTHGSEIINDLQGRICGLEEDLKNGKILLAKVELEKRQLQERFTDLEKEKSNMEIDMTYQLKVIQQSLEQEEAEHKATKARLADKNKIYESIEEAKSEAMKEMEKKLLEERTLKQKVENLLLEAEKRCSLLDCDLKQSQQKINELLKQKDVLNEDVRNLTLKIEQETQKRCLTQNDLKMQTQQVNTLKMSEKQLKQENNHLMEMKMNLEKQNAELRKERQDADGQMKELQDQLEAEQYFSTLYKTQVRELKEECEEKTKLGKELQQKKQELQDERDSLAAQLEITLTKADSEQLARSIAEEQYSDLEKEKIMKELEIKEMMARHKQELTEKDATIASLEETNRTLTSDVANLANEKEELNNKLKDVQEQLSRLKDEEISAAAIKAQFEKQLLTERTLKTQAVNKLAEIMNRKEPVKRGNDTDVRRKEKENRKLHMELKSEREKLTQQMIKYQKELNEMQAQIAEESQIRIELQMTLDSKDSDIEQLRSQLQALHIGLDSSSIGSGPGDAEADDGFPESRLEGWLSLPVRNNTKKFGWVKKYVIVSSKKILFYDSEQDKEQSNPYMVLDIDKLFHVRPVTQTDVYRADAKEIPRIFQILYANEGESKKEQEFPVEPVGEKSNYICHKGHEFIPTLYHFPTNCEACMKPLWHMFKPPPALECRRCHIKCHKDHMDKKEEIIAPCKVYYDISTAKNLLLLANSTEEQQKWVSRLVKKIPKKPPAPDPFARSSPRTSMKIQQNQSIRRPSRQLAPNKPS
# Chain of Serine/threonine-protein kinase SBK1 (Homo sapiens) (Q52WX2 whole entry): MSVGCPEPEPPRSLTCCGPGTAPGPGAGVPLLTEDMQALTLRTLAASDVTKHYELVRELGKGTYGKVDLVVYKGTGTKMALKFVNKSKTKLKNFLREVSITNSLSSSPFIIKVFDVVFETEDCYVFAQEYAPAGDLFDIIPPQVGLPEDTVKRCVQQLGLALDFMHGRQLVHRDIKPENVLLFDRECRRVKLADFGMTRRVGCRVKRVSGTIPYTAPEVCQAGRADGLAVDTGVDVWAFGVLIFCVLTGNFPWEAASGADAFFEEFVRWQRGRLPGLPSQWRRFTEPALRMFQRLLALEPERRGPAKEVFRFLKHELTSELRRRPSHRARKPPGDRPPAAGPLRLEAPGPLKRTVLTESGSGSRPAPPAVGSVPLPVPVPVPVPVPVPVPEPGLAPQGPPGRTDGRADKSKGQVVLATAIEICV
smiles,measurement,setting,value
CCN(CC)CCCCNc1ncc2cc(-c3cc(OC)cc(OC)c3)c(NC(=O)NC(C)(C)C)nc2n1,% of control,[1],100%
CCC(=O)N1CCN(c2ccc(-n3c(=O)ccc4cnc5ccc(-c6cnc7ccccc7c6)cc5c43)cc2C(F)(F)F)CC1,% of control,[2],84%
Cc1ccc(-c2ccc3c(ccc4sc5c(c43)NC[C@@H](C)NC5=O)n2)cn1,% of inhibition,[3],35%
CN(C)CCOc1ccc(-c2nc(-c3ccncc3)c(-c3ccc4c(c3)CC/C4=N\O)[nH]2)cc1,% of control,[4],95%
C=CC(=O)Nc1cccc(C(=O)Nc2ccc(Nc3cc(-c4[nH]c(SC)nc4C)ccn3)cc2)c1,% of control,[5]; at 1 µM,74%
same,% of control,[5]; at 5 µM,52%
Nc1cnc(N2CCc3cc(S(=O)(=O)Nc4c(F)cc(Cl)cc4F)cc(N4CCCC4=O)c32)nc1 [TP-020n],% of control,[6],100%
O=C(NOC[C@H](O)CO)c1ccc(F)c(F)c1Nc1ccc(I)cc1F,% of control,[7],89%
Cc1cc([C@@H](C)Nc2ccccc2C(=O)O)c2nc(N3CCOCC3)cc(=O)n2c1 [AZD-6482],% of control,[8],96%
Cn1cc(-n2cnc3c(NCc4nc5cc(Cl)c(Cl)cc5[nH]4)nc(N4CCOCC4)nc32)cn1,% of control,[9],3.57%
CC[C@@H]1[C@H](F)C(=O)N[C@@H]1COc1nccc2cc(C(N)=O)c(OC)cc12 [ZIMLOVISERTIB],% of inhibition,[10],-23.1%
CNC(=O)Nc1ccc(-c2nc(N3CC4CCC(C3)O4)c3cnn(C4CCC5(CC4)OCCO5)c3n2)cc1,% of control,[11],100%
C=CC(=O)Nc1cc(-n2c(=O)ccc3cnc4ccc(-c5ccc(NS(C)(=O)=O)cc5)cc4c32)ccc1C,% of control,[12]; at 1 µM,100%
same,% of control,[12]; at 10 µM,71%
same,% of control,[13],75%
O[C@H]1CC[C@H](Nc2ncc3nc(Nc4c(F)cc(F)cc4F)n([C@H]4CCOC4)c3n2)CC1,% of control,[14],73%
CN(C)C/C=C/C(=O)Nc1ccc(C(=O)N2CCCC(Nc3ncc(Cl)c(-c4c[nH]c5ccccc45)n3)C2)cc1 (configuration not stated),% of control,[15],97%
